The target in the test is human mGluR5 receptor (Homo sapiens (Human), UniProt P41594). The experiment in a line: Calcium influx assay based on fluorescence (mGluR5 PAM activity). The conditions noted are these: human mGluR5 receptor-overexpressed HEK293 cell line; L-glutamate EC20; Fluo-4, FLIPR. The protocol:
Efficacy as a positive allosteric modulator (PAM) of mGluR5 of the compounds of the Examples was tested as follows:
Calcium Influx Assay Based on Fluorescence
Ca^2+ (calcium) influx assay is an experiment for measuring the activity of a positive allosteric modulator of mGluR5 receptor in which human mGluR5 receptor-overexpressed HEK293 cell line is used. The day before the experiment, cells were prepared in a cell culture medium (DMEM, 5% FBS) with the density of 80,000/well, and 100 μl of cells were dispensed into each well of a poly-D-lysine-coated 96-well plate. Cells were incubated in a 5% CO2, 37° C. incubator. The next day, the cell culture medium was removed from the plate, and 100 μl of 1× Fluo-4 calcium indicator diluted with a buffer (1× Hank's balanced salt solution, 20 mM HEPES, 2.5 mM probenecid) were added to each well and incubated at 37° C. for 1 hour. The compound stock solutions were prepared in 100% DMSO, and the compounds were serially diluted with a ¼ dilution to 6 or 7 concentrations (final concentration was 10 μM to 10 nM). The diluted compound solutions were added to the plate with 0.1 to 0.2% of final DMSO concentration. 1 hour after the addition of Fluo-4 calcium indicator, L-glutamate (EC20 concentration) and the test compound solutions were added to the plate, and Ca^2+ reaction was then measured by FLIPR at room temperature. The activity of the compounds was standardized on the basis of the results of maximum value-minimum value of fluorescent reaction, and the activity value was calculated on the basis that no activity on glutamate EC20 is 0% and the reaction to glutamate maximum value is 100%.
Chain of human mGluR5 receptor (P41594 21-1212): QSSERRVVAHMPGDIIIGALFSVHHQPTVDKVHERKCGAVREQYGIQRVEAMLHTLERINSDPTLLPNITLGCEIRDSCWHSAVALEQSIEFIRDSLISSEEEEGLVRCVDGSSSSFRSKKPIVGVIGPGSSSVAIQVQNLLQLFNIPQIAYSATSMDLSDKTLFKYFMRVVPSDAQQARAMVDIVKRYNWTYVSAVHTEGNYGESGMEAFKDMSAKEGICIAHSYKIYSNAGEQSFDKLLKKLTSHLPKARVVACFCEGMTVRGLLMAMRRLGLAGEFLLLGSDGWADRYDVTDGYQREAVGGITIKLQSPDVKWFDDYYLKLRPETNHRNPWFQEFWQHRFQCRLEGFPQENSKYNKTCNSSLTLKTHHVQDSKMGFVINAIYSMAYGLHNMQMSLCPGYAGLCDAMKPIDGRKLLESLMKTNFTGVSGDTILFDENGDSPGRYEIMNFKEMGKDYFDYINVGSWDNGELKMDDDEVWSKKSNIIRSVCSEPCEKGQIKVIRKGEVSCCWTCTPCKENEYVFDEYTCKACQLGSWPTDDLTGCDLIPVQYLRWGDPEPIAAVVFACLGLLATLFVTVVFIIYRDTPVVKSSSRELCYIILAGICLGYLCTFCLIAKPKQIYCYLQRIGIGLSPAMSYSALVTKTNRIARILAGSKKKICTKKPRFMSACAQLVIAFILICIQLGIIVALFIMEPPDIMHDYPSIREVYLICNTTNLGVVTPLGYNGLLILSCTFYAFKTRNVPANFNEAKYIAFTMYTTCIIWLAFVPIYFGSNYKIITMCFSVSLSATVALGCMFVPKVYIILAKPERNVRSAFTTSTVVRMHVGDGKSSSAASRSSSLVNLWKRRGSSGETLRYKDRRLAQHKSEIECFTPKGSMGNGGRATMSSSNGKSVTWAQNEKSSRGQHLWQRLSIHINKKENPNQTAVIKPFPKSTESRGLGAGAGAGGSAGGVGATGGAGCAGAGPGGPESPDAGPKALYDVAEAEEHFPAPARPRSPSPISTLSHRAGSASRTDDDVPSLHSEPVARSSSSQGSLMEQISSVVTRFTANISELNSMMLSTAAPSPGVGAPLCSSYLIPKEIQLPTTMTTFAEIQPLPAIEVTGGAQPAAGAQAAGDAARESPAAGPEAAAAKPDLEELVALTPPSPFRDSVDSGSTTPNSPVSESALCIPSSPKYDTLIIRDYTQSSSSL
One may read the EC50 as the concentration giving half of the maximal effect. As to `COc1cc(F)ccc1-c1cnc2nc(COc3cc(F)ccn3)cn2c1` [Example 118, 6-(4-fluoro-2-methoxy-phenyl)-2-[(4-fluoro-2-pyridyl)oxymethyl)imidazo[1,2-a]pyrimidine], the EC50 lay in the range of 0.1 to 0.5 µM.

With `Fc1cccc(OCc2cn3cc(-c4ccc(F)nc4F)cnc3n2)c1` [Example 71, 6-(2,6-difluoro-3-pyridyl)-2-[(3-fluorophenoxy)methyl]imidazo[1,2-a]pyrimidine], the EC50 lay within 0.1 to 0.5 µM.

As to `Fc1ccc(-c2cnc3nc(COc4ccncc4)cn3c2)c(F)c1` [Example 152, 6-(2,4-difluorophenyl)-2-(pyridin-4-yloxymethyl)imidazo[1,2-a]pyrimidine], the EC50 was in the range of 0.1 to 0.5 µM.

As for `OCc1cc(F)ccc1-c1cnc2nc(COc3ccccn3)cn2c1` [Example 135, [5-fluoro-2-[2-(2-pyridyloxymethyl)imidazo[1,2-a]pyrimidin-6-yl]phenyl]methanol], the EC50 lay within 0.1 to 0.5 µM.

For the molecule `COc1cc(F)ccc1-c1cnc2nc(COc3ccccc3)cn2c1` [Example 20, 6-(2-methoxy-4-fluorophenyl)-2-phenoxymethylimidazo[1,2-a]pyrimidine], the EC50 is 0.1 to 0.5 µM.

Consider `Fc1ccc(-c2cnc3nc(COc4ccc(F)nc4)cn3c2)c(F)c1` [Example 157, 6-(2,4-difluorophenyl)-2-(6-fluoropyridin-3-yloxymethyl)imidazo[1,2-a]pyrimidine], for which the EC50 is 0.5 to 1 µM.

As to `COc1cc(F)ccc1-c1cnc2nc(COc3ccnc(F)c3)cn2c1` [Example 163, 6-(4-fluoro-2-methoxyphenyl)-2-(2-fluoropyridin-4-yloxymethyl)imidazo[1,2-a]pyrimidine], the EC50 was in the range of 0.1 to 0.5 µM.

For `Cc1cc(F)ccc1-c1cnc2nc(COc3ccc(F)cn3)cn2n1` [Example 192, 2-(4-fluoro-2-methyl-phenyl)-6-[(5-fluoro-2-pyridyl)oxymethyl]imidazo[1,2-b][1,2,4]triazine], the EC50 was 0.1 to 0.5 µM.

As to `Fc1ccc(OCc2cn3cc(-c4ccnc(F)c4)cnc3n2)cc1` [Example 62, 2-[(4-fluorophenoxy)methyl]-6-(2-fluoro-4-pyridyl)imidazo[1,2-a]pyrimidine], the EC50 lay within 0.5 to 1 µM.

Consider `Cc1cc(F)ccc1-c1cnc2nc(COc3cncc(Cl)c3)cn2c1` [Example 160, 6-(4-fluoro-2-methylphenyl)-2-(5-chloropyridin-3-yloxymethyl)imidazo[1,2-a]pyrimidine], for which the EC50 is 0.5 to 1 µM.

Turning to `Cc1ccc(N)c(-c2cnc3nc(COc4cccc(F)c4)cn3c2)c1` [Example 100, 2-[2-[(3-fluorophenoxy)methyl]imidazo[1,2-a]pyrimidin-6-yl]-4-methyl-aniline], the EC50 lay within 0.5 to 1 µM.

On to `Fc1cccc(-c2cnc3nc(COc4ccccn4)cn3c2)c1F` [Example 107, 6-(2,3-difluorophenyl)-2-(pyridin-2-yloxymethyl)imidazo[1,2-a]pyrimidine], for which the EC50 is 0.5 to 1 µM.

For `Cc1cc(F)ccc1-c1cnc2nc(COc3ccccn3)cn2c1` [Example 106, 6-(4-fluoro-2-methylphenyl)-2-(pyridin-2-yloxymethyl)imidazo[1,2-a]pyrimidine], the EC50 was in the range of 0.1 to 0.5 µM.

For the molecule `COc1cc(C#N)ccc1-c1cnc2nc(COc3ccccn3)cn2c1` [Example 136, 3-methoxy-4-[2-(2-pyridyloxymethyl)imidazo[1,2-a]pyrimidin-6-yl]benzonitrile], the 50% effective concentration (EC50) lay in the range of 0.5 to 1 µM.

Consider `Cc1ccccc1-c1cnc2nc(COc3ccc(F)cc3)cn2c1` [Example 60, 2-[(4-fluorophenoxy)methyl]6-(o-tolyl)imidazo[1,2-a]pyrimidine], for which the EC50 is 0.1 to 0.5 µM.

For `Fc1ccc(OCc2cn3cc(-c4cnc(F)c(F)c4)cnc3n2)cc1` [Example 83, 6-(5,6-difluoro-3-pyridyl)-2-[(4-fluorophenoxy)methyl]imidazo[1,2-a]pyrimidine], the EC50 was in the range of 0.1 to 0.5 µM.

On to `Fc1ccc(-c2cnc3nc(COc4ccncc4)cn3n2)c(F)c1` [Example 179, 2-(2,4-difluorophenyl)-6-((pyridin-4-yloxy)methyl)imidazo[1,2-b][1,2,4]triazine], for which the EC50 was 0.1 to 0.5 µM.

As for `Fc1ccc(OCc2cn3cc(-c4cnccc4Cl)cnc3n2)cc1` [Example 87, 6-(4-chloro-3-pyridyl)-2-[(4-fluorophenoxy)methyl]imidazo[1,2-a]pyrimidine], the EC50 was in the range of 0.5 to 1 µM.

Take `Cc1cc(F)ccc1-c1cnc2nc(COc3cccnc3F)cn2c1` [Example 159, 6-(4-fluoro-2-methylphenyl)-2-(2-fluoropyridin-3-yloxymethyl)imidazo[1,2-a]pyrimidine]: the EC50 was 0.5 to 1 µM.

Take `Fc1ccc(-c2cnc3nc(COc4ccnc(Cl)c4)cn3c2)cc1` [Example 172, 2-[(2-chloro-4-pyridyl)oxymethyl]-6-(4-fluorophenyl)imidazo[1,2-a]pyrimidine]: the EC50 lay within 0.1 to 0.5 µM.

For the molecule `Fc1ccc(-c2cnc3nc(COc4cccc(F)c4)cn3c2)cc1` [Example 54, 2-[(3-fluorophenoxy)methyl]-6-(4-fluorophenyl)imidazo[1,2-a]pyrimidine], the EC50 lay within 0.1 to 0.5 µM.

As to `Fc1ccc(OCc2cn3cc(-c4ccc(F)cn4)cnc3n2)cc1` [Example 85, 2-[(4-fluorophenoxy)methyl]-6-(5-fluoro-2-pyridyl)imidazo[1,2-a]pyrimidine], the EC50 lay within 0.1 to 0.5 µM.

`Fc1ccc(OCc2cn3cc(-c4ccc(F)cc4C(F)(F)F)cnc3n2)nc1` [Example 119, 2-[(5-fluoro-2-pyridyl)oxymethyl]-6-[4-fluoro-2-(trifluoromethyl)phenyl]imidazo[1,2-a]pyrimidine]: the EC50 is 0.1 to 0.5 µM.

Regarding `Fc1ccc(-c2cnc3nc(COc4ccccc4)cn3c2)c(C(F)(F)F)c1` [Example 18, 6-(4-fluoro-2-trifluoromethylphenyl)-2-phenoxymethylimidazo[1,2-a]pyrimidine], the EC50 is 0.1 to 0.5 µM.

As to `Fc1ccc(-c2cnc3nc(COc4cncc(F)c4)cn3c2)cc1` [Example 171, 6-(4-fluorophenyl)-2-[(5-fluoro-3-pyridyl)oxymethyl)imidazo[1,2-a]pyrimidine], the EC50 fell in the range of 0.1 to 0.5 µM.

Consider `Fc1ccc(-c2cnc3nc(COc4cc(F)ccn4)cn3c2)cc1` [Example 123, 6-(4-fluorophenyl)-2-[(4-fluoro-2-pyridyl)oxymethyl)imidazo[1,2-a]pyrimidine], for which the EC50 lay within 0.1 to 0.5 µM.

Turning to `Fc1cccc(OCc2cn3cc(-c4ccncc4Cl)cnc3n2)c1` [Example 45, 6-(3-chloropyridin-4-yl)-2-(3-fluorophenoxymethyl)imidazo[1,2-a]pyrimidine], the EC50 fell in the range of 0.1 to 0.5 µM.

Regarding `NC(=O)OCc1cc(F)ccc1-c1cnc2nc(COc3ccc(F)cc3)cn2c1` [Example 193, [5-fluoro-2-[2-[(4-fluorophenoxy)methyl]imidazo[1,2-a]pyrimidin-6-yl]phenyl]methyl carbamate], the EC50 lay in the range of 0.1 to 0.5 µM.

In the case of `FC(F)(F)c1cc(Cl)ccc1-c1cnc2nc(COc3ccccn3)cn2n1` [Example 189, 2-[4-chloro-2-(trifluoromethyl)phenyl]-6-(2-pyridyloxymethyl)imidazo[1,2-b][1,2,4]triazine], the EC50 fell in the range of 0.5 to 1 µM.

In the case of `Cc1ccccc1-c1cnc2nc(COc3ccccn3)cn2c1` [Example 103, 6-(2-methylphenyl)-2-(pyridin-2-yloxymethyl)imidazo[1,2-a]pyrimidine], the EC50 lay in the range of 0.1 to 0.5 µM.

Turning to `CSc1cc(F)ccc1-c1cnc2nc(COc3ccccc3)cn2c1` [Example 26, 6-(4-fluoro-2-methylthiophenyl)-2-phenoxymethylimidazo[1,2-a]pyrimidine], the EC50 was 0.1 to 0.5 µM.

Consider `COc1cc(F)ccc1-c1cnc2nc(COc3ccccn3)cn2c1` [Example 104, 6-(4-fluoro-2-methoxyphenyl)-2-(pyridin-2-yloxymethyl)imidazo[1,2-a]pyrimidine], for which the EC50 was 0.1 to 0.5 µM.

For the molecule `COc1c(F)cccc1-c1cnc2nc(COc3ccccn3)cn2c1` [Example 112, 6-(3-fluoro-2-methoxy-phenyl)-2-(2-pyridyloxymethyl)imidazo[1,2-a]pyrimidine], the EC50 is 0.1 to 0.5 µM.

In the case of `CSc1cc(F)ccc1-c1cnc2nc(COc3ccccn3)cn2c1` [Example 138, 6-(4-fluoro-2-methylsulfanyl-phenyl)-2-(2-pyridyloxymethyl)imidazo[1,2-a]pyrimidine], the EC50 was in the range of 0.1 to 0.5 µM.

For `COc1cc(C#N)ccc1-c1cnc2nc(COc3cccc(F)c3)cn2c1` [Example 95, 4-[2-[(3-fluorophenoxy)methyl]imidazo[1,2-a]pyrimidin-6-yl]-3-methoxy-benzonitrile], the EC50 lay in the range of 0.1 to 0.5 µM.

`Cc1ccc(-c2cnc3nc(COc4ccc(F)cc4)cn3c2)c(F)c1` [Example 64, 6-(2-fluoro-4-methyl-phenyl)-2-[(4-fluorophenoxy)methyl]imidazo[1,2-a]pyrimidine]: the EC50 is 0.5 to 1 µM.

For `Cc1cc(F)ccc1-c1cnc2nc(COc3cccnc3)cn2c1` [Example 149, 6-(4-fluoro-2-methylphenyl)-2-(pyridin-3-yloxymethyl)imidazo[1,2-a]pyrimidine], the EC50 lay within 0.1 to 0.5 µM.

In the case of `COc1ccc(-c2cnc3nc(COc4ccc(F)cc4)cn3c2)cc1N` [Example 84, 5-[2-[(4-fluorophenoxy)methyl]imidazo[1,2-a]pyrimidin-6-yl]-2-methoxy-aniline], the EC50 is 0.5 to 1 µM.
